Assay results published in patent US11464762B2, “Carcinogenesis inhibitor” (NATIONAL CANCER CENTER, priority 2017, dated 2022).

Key:
[1] = tested on: intestinal polyps of C57BL/6-Apc^Min/+ mouse (Min mouse); assay: Evaluation of intestinal polyp formation in Min mice; type: in vivo; conditions: for Number of intestinal polyp, colon / Number of intestinal polyp, small intestine distal segment / Number of intestinal polyp, small intestine middle segment / Number of intestinal polyp, small intestine proximal segment / Number of intestinal polyp, total: mean
From the text: (1) Grouping of Experimental Animals and Administration of a Test Substance
As to an experimental animal, there was used a C57BL/6-Apc^Min/+ mouse (Min mouse) which was a familial adenomatosis coli model. The Min mouse is an Apc (adenomatous polyoisis coli) mutant mouse and an increase in polyp numbers is noted therein with time. It has been also known that the Min mouse is occurred with dyslipidemia in a state of highly oxidative stress. 5-week-old male Min mice were bred and acclimatized in a plastic cage (235×325×170 H mm) (six mice in maximum in a cage) in a laboratory where the temperature, the humidity and the brightness/darkness cycle were set at 24±2° C., 55% and 12 hours, respectively. In the meanwhile, they were freely ingested with filtered water and basic feed (MN-76A, CLEA Japan Inc.).
(§1) The experimental animals were randomly classified into a control group, a group to which 500 ppm of a test substance was administered and a group to which 1000 ppm of a test substance was administered. In each group, 10 mice per group were organized in such a manner that average body weight in the group became same. The control group was administered with a basic feed only and each of the 500 ppm test substance-administering group and the 1000 ppm test substance-administering group was administered with a mixed feed of a test substance (Compound 21) in 500 and 1000 ppm concentrations, respectively for eight weeks.
(2) Measurement of Numbers of Polyps in the Intestinal Tract
The mice in each group were killed under anesthetization at 13 weeks old and, after laparotomy, the intestinal tract was excised and fixed with formalin. Small intestine was divided into proximal segment (the segment in about 4 cm length from pylorus), middle segment and distal segment, then the polyp numbers in the four segments including colon were counted under a stereomicroscope and the mean value in each group was calculated.

[2] = tested on: PCNA antibody-positive cells in polyp part of mouse small intestine mucosa; assay: Cell proliferation ability in polyp part of intestinal mucosa (PCNA immunostaining); type: in vivo; conditions: Min mice, 1000 ppm in feed, n = 14 (control group 71.26)
Method: The formalin-fixed slices embedded in paraffin prepared from the polyp part of mouse small intestine mucosa of the control group and of the 1000 ppm test substance-administering group being excised in Test Example 1 were dipped in xylene for five minutes×three times for the purpose of deparaffinization and were dipped in 99.5% alcohol for five minutes×three times to enhance the hydrophilicity followed by dipping into distilled water for 10 minutes. After that, the slices were dipped into a methanol solution containing 0.3% of hydrogen peroxide to conduct a deactivation treatment for the endogenous peroxidase. Further, 1 mL of a 0.3% Triton [Registered trade mark] X-100 solution containing 2% of horse serum (a phosphate-buffered saline (PBS) containing 0.3% of Triton) followed by blocking for 30 minutes.
To the slices was added an anti-mouse proliferating cell nuclear antigen (PCNA) antibody (Calbiochem [Registered trade mark]) diluted to an extent of 100 times and a primary antibody response was conducted overnight at 4° C. […] The ratio of the PCNA antibody-positive cell numbers to the total cell numbers in the microscopic field in each group was also calculated. […]

c-Myc = assay: Expression level of cell proliferation-associated factor mRNA (realtime-PCR), c-Myc; type: in vivo, mouse; conditions: Min mice, 1000 ppm in feed, GAPDH-normalised, control group = 1.00, n=3
Method: (§2) (1) mRNA Extraction from the Intestinal Polyp Part and Non-Polyp Part, and cDNA Synthesis
(§3) TRIsol (Invitrogen) (500 μL) was added to a polyp part and a non-polyp part of small intestine mucosa of mouse of the control group and the 1000 ppm test substance-administering group scraped in Test Example 1. After 100 μL of chloroform was added thereto and mixed therewith, the mixture was centrifuged (12000 rpm for 2 minutes) and the supernatant liquid was recovered therefrom. The recovered supernatant liquid was added 250 μL of ethanol and RNA was extracted therefrom and purified using a column (QIAGEN).
(§4) After DNAse (Invitrogen) treatment, cDNA was prepared from 1 μg of the total RNA using High-Capacity cDNA Reverse Transcription Kits (Applied Biosystems). […]
(§5) Expression level of mRNA of the cell proliferation-associated factors [c-Myc, CDK4 and cyclin D1] was measured by a realtime-PCR method using the cDNA being synthesized from the total RNA extracted in the above (1). With regard to the polyp part, the mRNA expression level only of c-Myc was measured.
(§6) As to the PCR primers for each of the cell proliferation-associated factors, there were used c-Myc [Forward: […] […] Each of the resulted measured values was divided by the measured value of the glyceraldehyde-3-phosphate dehydrogenase (GAPDH) gene which was an internal standard whereupon the relative values were calculated. […]

CDK4 = assay: Expression level of cell proliferation-associated factor mRNA (realtime-PCR), CDK4; type: in vivo, mouse; conditions: non-polyp part of small intestine mucosa, Min mice, 1000 ppm in feed, GAPDH-normalised, control group = 1.00, n=3
Method: as §2, §3, §4, §5, §6

cyclin D1 = assay: Expression level of cell proliferation-associated factor mRNA (realtime-PCR), cyclin D1; type: in vivo, mouse; conditions: non-polyp part of small intestine mucosa, Min mice, 1000 ppm in feed, GAPDH-normalised, control group = 1.00, n=3
Method: as §2, §3, §4, §5, §6

[3] = Evaluation of safety, repeated oral administration to healthy male adults; type: in vivo, human; conditions: oral 400 mg single dose, 17 administrations over seven days, six cases
Method: Eight healthy male adults (21 to 24 years age) (consisting of six cases being administered with the test substance and two cases being administered with the placebo) were used as the subjects and the present compound was orally administered repeatedly to evaluate the safety. A test substance (Compound 21) was orally administered in the single dose of 400 mg in such a manner that, on the first and the seventh day of the administration, once-daily in the morning on an empty stomach and, on the second to the sixth days of the administration, thrice-daily on an empty stomach (at 09:00, 14:00 and 19:00) together with 150 mL of water each (17 administrations in total).

[4] = Feed and body weight of Min mice during the administration period; type: in vivo, mouse; conditions: 500 and 1000 ppm in feed for eight weeks versus control group
Method: as §1

[5] = 500 ppm in feed for eight weeks
[6] = 500 ppm in feed for eight weeks, n = 9
[7] = 1000 ppm in feed for eight weeks
[8] = 1000 ppm in feed for eight weeks, n = 8

**Q.** For `CN1C(=O)NC(=O)C1O` (stereo not shown) [Compound 21, 5-Hydroxy-1-methylhydantoin], which “Decrease of polyp numbers in the middle segment of small intestine as compared with the control group” value [1, 5] is on record?
**A.** Its value is “about 37%”.

**Q.** What about the “Decrease of total numbers of polyps as compared with the control group” value [1, 5] of the same compound?
**A.** The value was “about 17%”.

**Q.** And the “Number of intestinal polyp, colon” value [1, 6]?
**A.** Its value is 1.00.

**Q.** What about the “Number of intestinal polyp, small intestine distal segment” value [1, 6] of the same compound?
**A.** Its value is 27.00.

**Q.** And the “Number of intestinal polyp, small intestine middle segment” value [1, 6]?
**A.** The value was 7.33.

**Q.** And the “Number of intestinal polyp, small intestine proximal segment” value [1, 6]?
**A.** Its value is 3.89.

**Q.** What about the “Number of intestinal polyp, total” value [1, 6] of the same compound?
**A.** The value was 39.22.

**Q.** What about the “Decrease of polyp numbers in the middle segment of small intestine as compared with the control group” value [1, 7] of the same compound?
**A.** Its value is about 29%.

**Q.** What about the “Decrease of total numbers of polyps as compared with the control group” value [1, 7] of the same compound?
**A.** Its value is “about 17%”.

**Q.** What about the “Number of intestinal polyp, colon” value [1, 8] of the same compound?
**A.** The value was 0.38.

**Q.** And the “Number of intestinal polyp, small intestine distal segment” value [1, 8]?
**A.** Its value is 25.63.

**Q.** What about the “Number of intestinal polyp, small intestine middle segment” value [1, 8] of the same compound?
**A.** The value was 8.25.

**Q.** What about the “Number of intestinal polyp, small intestine proximal segment” value [1, 8] of the same compound?
**A.** Its value is 5.13.

**Q.** What about the “Number of intestinal polyp, total” value [1, 8] of the same compound?
**A.** The value was 39.38.

**Q.** And the “Ratio of the PCNA antibody-positive cell numbers to the total cell numbers” value [2]?
**A.** Its value is 58.40%.

**Q.** What about the “Ratio of expression quantity of cell proliferation-associated factor c-Myc” value (c-Myc; non-polyp part of small intestine mucosa) of the same compound?
**A.** The value was 0.25.

**Q.** What about the “Ratio of expression quantity of cell proliferation-associated factor c-Myc” value (c-Myc; polyp part of small intestine mucosa) of the same compound?
**A.** The value was 0.39.

**Q.** What about the “Ratio of expression quantity of cell proliferation-associated factor CDK4” value (CDK4) of the same compound?
**A.** The value was 0.47.

**Q.** What about the “Ratio of expression quantity of cell proliferation-associated factor Cyclin D1” value (cyclin D1) of the same compound?
**A.** The value was 0.27.

**Q.** And the “Abnormal variation in blood pressure, pulse rate, body temperature, hematological test, blood biochemical test and urinary test” value [3]?
**A.** The value was “no abnormal variation suspected to be related to the present compound”.

**Q.** What about the “Clinical symptoms suspected to be related to the compound” value [3] of the same compound?
**A.** Its value is “no clinical symptom suspected to be related to the present compound”.

**Q.** What about the “Difference in the feed and in the body weight among the groups during the administration period” value [4] of the same compound?
**A.** Its value is “No significant difference”.
